Calls of active or inactive are those of the source.
How the values were obtained:
[1] = target: Glyceraldehyde-3-phosphate dehydrogenase (Homo sapiens, UniProt P04406)
[2] = target: T1, Alkaline phosphatase, tissue-nonspecific isozyme (Homo sapiens, UniProt P05186); assay: human TNAP enzyme inhibitors, SAR follow-up, biochemical, luminescent, dose response (AID 1056)
T1 sequence (P05186 whole entry): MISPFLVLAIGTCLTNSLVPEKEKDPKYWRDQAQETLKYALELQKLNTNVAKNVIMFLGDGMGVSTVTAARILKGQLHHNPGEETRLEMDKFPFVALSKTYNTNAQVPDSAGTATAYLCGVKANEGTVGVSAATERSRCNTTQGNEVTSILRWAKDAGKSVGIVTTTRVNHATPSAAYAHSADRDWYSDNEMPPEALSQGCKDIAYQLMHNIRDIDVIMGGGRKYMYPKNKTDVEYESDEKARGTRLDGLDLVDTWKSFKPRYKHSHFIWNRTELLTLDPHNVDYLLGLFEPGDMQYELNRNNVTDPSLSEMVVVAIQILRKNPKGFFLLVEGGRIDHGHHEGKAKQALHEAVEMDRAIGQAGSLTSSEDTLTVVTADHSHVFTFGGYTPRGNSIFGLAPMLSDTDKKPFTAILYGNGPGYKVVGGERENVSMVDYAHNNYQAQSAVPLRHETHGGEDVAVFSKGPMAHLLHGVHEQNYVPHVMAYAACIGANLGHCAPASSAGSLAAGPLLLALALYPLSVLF

[3] = target: Alkaline phosphatase, placental type (Homo sapiens, UniProt P05187); assay: PLAP enzyme inhibitors, confirmation, biochemical, luminescence (AID 1512); format: functional
Chain of Alkaline phosphatase, placental type (P05187 whole entry): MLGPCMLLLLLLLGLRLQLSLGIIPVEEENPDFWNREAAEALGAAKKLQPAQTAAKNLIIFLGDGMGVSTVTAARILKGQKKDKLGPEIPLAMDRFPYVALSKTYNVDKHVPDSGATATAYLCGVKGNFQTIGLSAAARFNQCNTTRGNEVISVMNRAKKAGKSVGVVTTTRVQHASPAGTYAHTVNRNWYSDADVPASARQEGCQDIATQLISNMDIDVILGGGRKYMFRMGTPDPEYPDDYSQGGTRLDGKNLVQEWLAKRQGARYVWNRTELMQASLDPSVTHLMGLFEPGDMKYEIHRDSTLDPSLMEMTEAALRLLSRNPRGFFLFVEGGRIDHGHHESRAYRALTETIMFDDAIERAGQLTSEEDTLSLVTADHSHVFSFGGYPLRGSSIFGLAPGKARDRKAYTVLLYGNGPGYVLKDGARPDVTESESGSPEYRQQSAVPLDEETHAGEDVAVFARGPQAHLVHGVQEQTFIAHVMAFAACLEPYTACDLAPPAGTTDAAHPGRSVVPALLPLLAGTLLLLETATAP

HEK293 [4] = assay: cells; format: functional, cell-based; conditions: Homo sapiens
HEK293 [5] = assay: cells; format: functional, cell-based; conditions: Homo sapiens; remark: listed apart in the source
HEK293 [6] = assay: NOD2 signaling inhibitors in MDP-stimulated cells, cell-based, uHTS, luminescence (AID 2001); format: functional; conditions: Homo sapiens
[7] = target: Nucleotide-binding oligomerization domain-containing protein 2 (Homo sapiens, UniProt Q9HC29); assay: NOD2 signaling inhibitors, cell-based, luminescence, uHTS, HEK293 (AID 1566); format: functional
Chain of Nucleotide-binding oligomerization domain-containing protein 2 (Q9HC29 whole entry, the tested form may be a part): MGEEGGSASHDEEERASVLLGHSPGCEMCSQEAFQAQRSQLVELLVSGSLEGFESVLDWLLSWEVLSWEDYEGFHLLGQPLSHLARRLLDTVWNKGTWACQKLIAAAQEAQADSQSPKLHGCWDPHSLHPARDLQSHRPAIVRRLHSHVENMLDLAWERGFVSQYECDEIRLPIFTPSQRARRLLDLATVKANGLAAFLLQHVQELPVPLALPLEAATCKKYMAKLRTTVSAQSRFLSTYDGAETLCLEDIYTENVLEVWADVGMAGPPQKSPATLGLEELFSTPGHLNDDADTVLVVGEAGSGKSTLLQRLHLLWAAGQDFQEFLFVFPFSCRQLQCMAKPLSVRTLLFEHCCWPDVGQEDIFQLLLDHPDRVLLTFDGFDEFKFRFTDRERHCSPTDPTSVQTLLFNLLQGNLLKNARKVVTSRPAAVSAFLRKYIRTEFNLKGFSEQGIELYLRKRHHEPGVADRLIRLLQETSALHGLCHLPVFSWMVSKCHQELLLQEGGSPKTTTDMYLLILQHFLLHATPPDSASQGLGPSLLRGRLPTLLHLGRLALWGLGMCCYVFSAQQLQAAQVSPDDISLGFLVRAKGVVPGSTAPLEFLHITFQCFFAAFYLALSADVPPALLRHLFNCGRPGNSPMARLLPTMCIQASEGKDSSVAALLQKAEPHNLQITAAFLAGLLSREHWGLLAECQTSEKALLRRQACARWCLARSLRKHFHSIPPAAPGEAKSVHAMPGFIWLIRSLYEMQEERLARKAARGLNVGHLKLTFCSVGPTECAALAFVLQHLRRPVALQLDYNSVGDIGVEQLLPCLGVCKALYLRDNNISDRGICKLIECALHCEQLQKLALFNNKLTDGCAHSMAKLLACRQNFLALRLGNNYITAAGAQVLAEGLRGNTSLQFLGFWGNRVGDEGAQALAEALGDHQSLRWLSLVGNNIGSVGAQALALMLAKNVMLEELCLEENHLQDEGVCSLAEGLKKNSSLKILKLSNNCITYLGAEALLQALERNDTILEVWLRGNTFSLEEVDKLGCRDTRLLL

[8] = target: T2, Heat shock factor protein 1 (Mus musculus, UniProt P38532); assay: HSF1 potentiators in luciferase reporter cells, confirmation, cell-based, NIH3T3, luminescence, dose retest (AID 435004); format: functional;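 also: stress induced by proteasome inhibitor MG132 added 30 min after compound; luciferase reporter driven by HSF1 response element in NIH3T3 cells; actives raise luminescence as potentiators of the MG132 stress response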
T2 sequence (P38532 whole entry): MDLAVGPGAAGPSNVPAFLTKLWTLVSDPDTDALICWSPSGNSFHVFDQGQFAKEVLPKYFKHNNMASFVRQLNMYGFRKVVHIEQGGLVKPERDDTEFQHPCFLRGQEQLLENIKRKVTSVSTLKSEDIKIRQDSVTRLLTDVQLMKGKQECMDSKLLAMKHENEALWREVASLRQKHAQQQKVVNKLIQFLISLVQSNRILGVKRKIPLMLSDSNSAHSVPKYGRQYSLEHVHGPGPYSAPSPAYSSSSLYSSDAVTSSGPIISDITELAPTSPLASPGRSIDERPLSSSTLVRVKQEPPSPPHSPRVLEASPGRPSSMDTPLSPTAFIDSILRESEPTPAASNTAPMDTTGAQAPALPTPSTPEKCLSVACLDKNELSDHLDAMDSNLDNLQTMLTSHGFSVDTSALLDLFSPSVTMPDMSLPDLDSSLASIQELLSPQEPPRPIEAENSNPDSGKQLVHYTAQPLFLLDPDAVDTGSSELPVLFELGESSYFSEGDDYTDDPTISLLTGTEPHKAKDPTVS

HEK293 [9] = assay: NOD1 signaling inhibitors, primary screen, cell-based, luminescence, uHTS (AID 1578); format: functional; conditions: Homo sapiens
HEK293 [10] = assay: cells; format: functional, cell-based; conditions: Homo sapiens; remark: listed apart in the source
INS1 = assay: beta cell apoptosis inhibitors, cytokine rescue, dose response, luminescence, retest (AID 449756); format: functional, cell-based; conditions: Rattus norvegicus;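 also: cell death triggered by IL-1 beta plus TNF-alpha plus IFN-gamma mixture; protective hits raise ATP signal compared with cytokine alone wells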
[11] = inhibitors of firefly luciferase expression or activity, dose response, H4 neuroglioma cells, luminescence (AID 1990); format: functional, cell-based
[12] = inhibitors of SNCA 5'UTR-driven reporter translation, confirmation, H4 neuroglioma cells, luminescence (AID 1988); format: functional, cell-based
Caspase-7 = Caspase-7 (Homo sapiens, UniProt P55210); assay: procaspase-7 activators, dose response, counter-screen for procaspase-3 activator project, biochemical, absorbance (AID 489013)
Chain of Caspase-7 (P55210 24-198 limits assumed): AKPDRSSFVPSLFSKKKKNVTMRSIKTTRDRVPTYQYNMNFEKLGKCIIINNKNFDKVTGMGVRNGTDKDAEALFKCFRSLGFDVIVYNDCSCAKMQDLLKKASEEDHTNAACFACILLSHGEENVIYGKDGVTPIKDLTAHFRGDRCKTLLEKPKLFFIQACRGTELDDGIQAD
Chain of Caspase-7 (P55210 207-303 limits assumed): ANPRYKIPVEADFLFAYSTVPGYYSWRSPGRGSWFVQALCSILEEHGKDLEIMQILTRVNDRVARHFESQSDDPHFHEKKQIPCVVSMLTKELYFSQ

[13] = Luminescence Cell-Based Dose Response HTS to Identify Inhibitors of 5'UTR Stem-Loop Driven Prion Protein mRNA Translation in H4 Neuroglioblastoma Cells. [Related pubchem assays: 1827 (Project Summary), 1813 (Primary HTS)]; format: functional
[14] = Counterscreen for AddAB inhibitors: absorbance-based bacterial cell-based high throughput dose response assay for inhibitors of bacterial viability. [Related pubchem assays (depositor defined):AID435030, AID449728, AID449731, AID488942, AID488955, AID488956]; format: functional
Caspase-3 = target: T3, Caspase-3 (Homo sapiens, UniProt P42574); assay: procaspase-3 activators, dose response, biochemical, absorbance (AID 489014)
T3 sequence (P42574 whole entry): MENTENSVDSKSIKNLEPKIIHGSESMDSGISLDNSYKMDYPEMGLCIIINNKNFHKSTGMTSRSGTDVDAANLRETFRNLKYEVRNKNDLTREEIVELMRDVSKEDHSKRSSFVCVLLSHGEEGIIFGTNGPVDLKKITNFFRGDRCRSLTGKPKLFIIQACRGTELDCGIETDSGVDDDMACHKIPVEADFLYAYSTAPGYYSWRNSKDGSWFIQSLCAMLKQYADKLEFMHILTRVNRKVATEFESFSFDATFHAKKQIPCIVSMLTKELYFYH

H9c2 = assay: cells; format: functional, cell-based; conditions: Rattus norvegicus, H9c2, Myocardium;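 also: confirmatory concentration-response retest of ultra-high-throughput screening hits for modulation of myocardial damage; cell death induced by hydrogen peroxide oxidative stress; compound pretreatment for 60 min then peroxide exposure for 2 h; potency is for protecting the cells against peroxide damage rather than for killing them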
Exodeoxyribonuclease V = target: T4, Exodeoxyribonuclease V (Escherichia coli (strain K12), UniProt P04993+P07648+P08394); assay: E. coli RecBCD inhibitors, dose response, counter-screen for AddAB inhibitor project, absorbance, V66 E. coli, mutant T4 phage (AID 492957); format: functional, cell-based, Escherichia coli str. K-12 substr. MG1655
T4 sequence (P04993 whole entry): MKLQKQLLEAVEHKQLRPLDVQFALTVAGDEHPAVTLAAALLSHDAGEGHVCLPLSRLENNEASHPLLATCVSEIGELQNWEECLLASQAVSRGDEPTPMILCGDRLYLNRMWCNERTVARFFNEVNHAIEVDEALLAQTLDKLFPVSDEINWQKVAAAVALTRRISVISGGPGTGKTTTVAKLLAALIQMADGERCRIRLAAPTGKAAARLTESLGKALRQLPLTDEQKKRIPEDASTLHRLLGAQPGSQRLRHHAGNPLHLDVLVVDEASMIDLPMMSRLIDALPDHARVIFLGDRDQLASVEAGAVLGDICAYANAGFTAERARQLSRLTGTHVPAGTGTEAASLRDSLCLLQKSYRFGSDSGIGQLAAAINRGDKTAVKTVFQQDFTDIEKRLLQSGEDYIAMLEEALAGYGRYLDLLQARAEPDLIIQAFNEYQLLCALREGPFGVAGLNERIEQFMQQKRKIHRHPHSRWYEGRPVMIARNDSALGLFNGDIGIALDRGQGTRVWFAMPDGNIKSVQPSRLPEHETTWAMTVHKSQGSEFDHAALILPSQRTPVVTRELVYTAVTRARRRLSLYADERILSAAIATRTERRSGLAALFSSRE
T4 sequence (P07648 whole entry): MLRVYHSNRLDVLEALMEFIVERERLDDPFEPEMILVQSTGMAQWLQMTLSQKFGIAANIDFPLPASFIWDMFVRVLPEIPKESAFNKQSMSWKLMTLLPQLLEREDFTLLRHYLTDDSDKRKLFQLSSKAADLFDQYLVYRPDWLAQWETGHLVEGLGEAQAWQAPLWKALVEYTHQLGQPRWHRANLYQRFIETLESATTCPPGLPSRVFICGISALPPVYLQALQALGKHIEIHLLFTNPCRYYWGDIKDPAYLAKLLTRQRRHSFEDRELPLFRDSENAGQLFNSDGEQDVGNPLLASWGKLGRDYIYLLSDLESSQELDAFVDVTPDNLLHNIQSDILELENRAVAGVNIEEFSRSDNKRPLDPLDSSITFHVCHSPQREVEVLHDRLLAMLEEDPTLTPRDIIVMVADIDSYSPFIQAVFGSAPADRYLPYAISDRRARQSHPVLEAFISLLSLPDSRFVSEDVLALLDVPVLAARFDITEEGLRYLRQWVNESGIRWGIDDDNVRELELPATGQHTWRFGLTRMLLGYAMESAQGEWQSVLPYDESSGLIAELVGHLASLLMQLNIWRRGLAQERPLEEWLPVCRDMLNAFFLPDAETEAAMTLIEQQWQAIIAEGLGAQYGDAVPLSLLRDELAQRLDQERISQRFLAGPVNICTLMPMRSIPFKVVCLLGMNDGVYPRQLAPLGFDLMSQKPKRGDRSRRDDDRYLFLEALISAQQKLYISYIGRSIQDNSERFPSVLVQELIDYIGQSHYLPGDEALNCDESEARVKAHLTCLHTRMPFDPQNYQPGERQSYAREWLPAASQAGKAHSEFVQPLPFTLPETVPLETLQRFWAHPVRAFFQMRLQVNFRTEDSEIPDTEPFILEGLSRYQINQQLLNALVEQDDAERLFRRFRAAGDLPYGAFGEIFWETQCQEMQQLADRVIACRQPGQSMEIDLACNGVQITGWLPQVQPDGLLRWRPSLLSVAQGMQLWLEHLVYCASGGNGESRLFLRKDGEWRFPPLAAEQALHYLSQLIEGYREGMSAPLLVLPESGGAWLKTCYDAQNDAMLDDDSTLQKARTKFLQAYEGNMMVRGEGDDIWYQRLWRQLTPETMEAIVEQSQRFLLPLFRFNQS
T4 sequence (P08394 whole entry): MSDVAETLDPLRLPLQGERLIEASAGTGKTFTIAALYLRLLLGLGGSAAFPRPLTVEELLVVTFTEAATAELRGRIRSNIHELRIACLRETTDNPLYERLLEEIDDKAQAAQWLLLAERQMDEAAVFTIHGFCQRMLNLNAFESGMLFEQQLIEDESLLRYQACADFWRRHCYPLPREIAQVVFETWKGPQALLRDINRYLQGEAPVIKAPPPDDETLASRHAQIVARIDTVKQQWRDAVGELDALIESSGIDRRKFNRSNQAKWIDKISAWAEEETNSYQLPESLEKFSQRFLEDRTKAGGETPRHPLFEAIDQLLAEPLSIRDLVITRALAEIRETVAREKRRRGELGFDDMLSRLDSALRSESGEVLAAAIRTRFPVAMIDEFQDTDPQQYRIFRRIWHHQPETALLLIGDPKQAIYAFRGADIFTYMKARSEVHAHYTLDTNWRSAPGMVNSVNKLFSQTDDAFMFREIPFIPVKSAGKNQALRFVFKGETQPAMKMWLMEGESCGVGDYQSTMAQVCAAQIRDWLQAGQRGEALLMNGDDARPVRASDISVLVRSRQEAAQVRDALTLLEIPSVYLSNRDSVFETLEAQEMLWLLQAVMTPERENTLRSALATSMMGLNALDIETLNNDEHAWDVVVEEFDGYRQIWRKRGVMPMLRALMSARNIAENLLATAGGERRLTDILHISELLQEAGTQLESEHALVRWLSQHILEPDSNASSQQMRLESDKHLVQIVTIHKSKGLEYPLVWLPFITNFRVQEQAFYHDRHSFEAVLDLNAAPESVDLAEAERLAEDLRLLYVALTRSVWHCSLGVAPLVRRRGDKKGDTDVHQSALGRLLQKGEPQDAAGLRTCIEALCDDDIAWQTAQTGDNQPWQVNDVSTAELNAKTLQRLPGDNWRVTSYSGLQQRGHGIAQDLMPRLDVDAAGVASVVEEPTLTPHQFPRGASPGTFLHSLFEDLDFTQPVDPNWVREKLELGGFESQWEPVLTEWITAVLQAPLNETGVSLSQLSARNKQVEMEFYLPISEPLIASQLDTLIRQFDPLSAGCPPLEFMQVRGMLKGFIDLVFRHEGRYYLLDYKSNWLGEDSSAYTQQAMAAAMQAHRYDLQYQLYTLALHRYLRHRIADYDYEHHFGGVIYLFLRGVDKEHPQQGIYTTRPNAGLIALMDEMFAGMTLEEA

Chain of Glyceraldehyde-3-phosphate dehydrogenase (P04406 whole entry): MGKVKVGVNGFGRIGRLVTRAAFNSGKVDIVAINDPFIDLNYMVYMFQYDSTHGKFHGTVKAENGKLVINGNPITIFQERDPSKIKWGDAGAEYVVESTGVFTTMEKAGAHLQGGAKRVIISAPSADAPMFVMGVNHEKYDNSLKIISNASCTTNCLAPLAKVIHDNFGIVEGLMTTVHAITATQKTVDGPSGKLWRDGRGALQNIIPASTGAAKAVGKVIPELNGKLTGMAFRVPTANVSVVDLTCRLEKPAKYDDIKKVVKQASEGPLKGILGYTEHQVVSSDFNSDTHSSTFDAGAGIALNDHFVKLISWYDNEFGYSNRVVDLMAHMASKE

With COc1ccc(Cc2nc(N)nn2-c2ccccc2)cc1 the IC50 [1] was > 100 µM (not active), the IC50 [2] was > 100 µM (inactive) and the IC50 [3] was > 100 µM (inactive).

In the case of Cc1cc(C)nc(SCC(=O)c2ccc3c(c2)OCO3)n1, the IC50 [2] is reported as > 100 µM (inactive) and the IC50 [3] is reported as > 100 µM (inactive).

With CCc1ccc(CN(C)C(=O)CCc2nc3ccccc3n(-c3ccc(OC)cc3)c2=O)cc1 the IC50 (HEK293 [4]) was > 20 µM (inactive), the IC50 (HEK293 [5]) was > 20 µM (inactive) and the IC50 (HEK293 [6]) was 5.96 µM (active). The EC50 [7] was 16 µM (active), the EC50 [8] was > 260 µM (inactive) and the EC50 (HEK293 [9]) was 12.7 µM (active). The IC50 (HEK293 [10]) was > 20 µM (inactive).

For CCCNC(=O)c1ccc2c(O)c(O)c(-c3ccc(C)cc3)nc2c1, the AC50 (INS1) was 7.24 µM (active), the EC50 [11] was 9.71 µM (active) and the EC50 [12] was 8.86 µM (active). The EC50 (Caspase-7) was > 85.3 µM (inactive), the EC50 [13] was > 120 µM (not active) and the IC50 [14] was > 119 µM (inactive). The EC50 (Caspase-3) was > 85.3 µM (inactive), the IC50 (H9c2) was > 79 µM (inactive) and the IC50 (Exodeoxyribonuclease V) was > 119 µM (inactive).
